Reference: patent US20250075176A1, “COMPOSITIONS COMPRISING HISTONE […] INHIBITORS OR REVERSE TRANSCRIPTASE INHIBITORS AND USE THEREOF” (FOREVE LABS LTD., priority 2022, published 2025)
Each block holds one compound with its values, some of them ahead of it.

What was measured:
[1] = tested on: old mouse oocytes; assay: In vitro maturation of old mouse oocytes in medium supplemented with drug; type: cell-based; details: for ability to induce maturation (first polar body extrusion and proper chromosome division): IVM media (a-MEM) with inhibitor, 24 hours, curcumin positive control, FIG. 9C-9D
Source text: (§1) Mouse oocyte in vitro maturation: After Euthanasia, ovaries were collected and dissected in L-15 medium (011151A) and supplemented with 200 um IBMX (17018) to prevent meiotic progression. Prophase I arrested oocytes were identified by visualization of the typical germinal vesicle and collected under a binocular using a Stripper (MD-MXL3-STR-CGR). After collection, oocytes were transferred into a-MEM medium (22561021) supplemented with IBMX covered with Mineral oil (M8410-11) to prevent evaporation, for recovery time of 25 min at 37° in a 5% CO2 incubator, and then washed in IBMX free a-MEM medium to initiate meiosis. The oocytes were incubated in a-MEM under oil in the incubator for 6 hours for prophase I or incubated for 19 hours for metaphase II. To assess maturation rates, oocytes were incubated for 19 hours after release and then fixed and stained by Hoechst to examine the entry into the second meiotic division. See below amendments for drug treatments.
Drug treatments: Ovaries were collected and dissected in L-15 medium supplemented with 200 um IBMX to prevent meiotic progression as described above. Prophase I arrested oocytes were collected using a Stripper as described above. After collection, oocytes were transferred to a-MEM medium supplemented with IBMX +the desired drug covered with Mineral oil to prevent evaporation, for 4 hours at 37° in a 5% CO2 incubator (Since Chaetocin and IBMX have a cross reactivity with each other, the pause was not performed in Chaetocin experiments). After the pause, oocytes were washed in IBMX-free a-MEM that contains the drug to initiate meiosis. 19 hours after oocytes were released from IBMX, oocytes were fixed in PFA, permeabilized, and sealed as described above. Chaetocin is a hazarzous substance. For biosafety reasons, Chaetocin supplemented plates and matched controls were placed in a sealed chamber during incubation time.
It was next tested if similar results could be achieved without genetic manipulation. Old oocytes were treated with two different naturally occurring histone acetyltransferase (HAT) inhibitors: curcumin and garcinol. As a negative control, oocytes were given vehicle only. […] Next, a broader panel of naturally occurring HAT inhibitors were tested along with another reverse transcriptase (RT) inhibitor (FIG. 9C). As before, old oocytes were incubated in IVM media (a-MEM) supplemented with the inhibitors for 24 hours and maturation was measured. Oocytes with both first polar body extrusion and proper division of chromosomes (as evaluated by Hoechst staining) were considered as mature. Curcumin was used as a positive control.

[2] = tested on: H3K9me2; assay: In situ staining intensity for H3K9me2 (heterochromatin) in old oocytes; type: cell-based, mouse; details: aged oocytes cultured with SRT-1720, FIG. 8G
Description: Mouse oocytes collection for in situ immunofluorescence: After Euthanasia, ovaries were collected and dissected in M2 medium (M7167). Oocytes were collected from pool of 3 animals at least (numbers of each experiment are noted in legend). Prophase I arrested oocytes were collected under a binocular using a Stripper and washed in hyaluronidase (H4272-30 MG) to remove granulosa cells and acidic Tyrode's Solution (T1788) to remove the Zona Pellucida. The oocytes were fixed using PFA 4% (15710) for 20 min, and then quenched in PBS supplemented with 10 mM glycine and 1% BSA.
(§2) In situ immunofluorescence: Permeabilization was performed using 0.1% Triton X-100. Cells were cultured in PBS contains 5% BSA for blocking, and first and secondary antibodies were diluted in 0.1 Tween 20 (P9416)/PBS containing 5% BSA. The immune-stained cells were mounted in Vectashield (H-1000) mounting medium containing 80 nM of Hoechst (33342) and sealed on a slide using an Imaging spacer (GBL654002).
Imaging and quantification: Oocytes were imaged using the Ti-Eclipse Nikon system, with an Andor Zyla nsc05537 camera. […] Every cell was imaged at multiple planes. In order to analyze the images in a quantitatively, a projection of maximum intensity was created. To measure staining intensity, every assessed region was normalized to an equal-size region in the background (outside the area of interest). […]

[3] = tested on: older oocytes; details: aged animals, previously shown; cited from earlier work
[4] = tested on: young mouse oocytes; assay: In vitro maturation of young mouse oocytes treated with epigenetic drugs; type: cell-based; details: 2-month-old oocytes, Chaetocin 0.5 μM 18 h, FIG. 7A
Source text: as §1
(§3) Drug treatments: Ovaries were collected and dissected in L-15 medium supplemented with 200 um IBMX to prevent meiotic progression as described above. Prophase I arrested oocytes were collected using a Stripper as described above. […]

[5] = target: PCAF (Homo sapiens, UniProt Q92831); details: cited from earlier work
[6] = Acidity of the molecule and effect on medium pH; type: physicochemical
Source text: The pH of the medium used was around 7.3 with buffering capacity between 6.9 and 7.6. […] This acidity interfered with maturation and indeed in the case of the two strongly acidic molecules inhibited it. Medium with a greater buffering capacity or a different concentration of these acidic molecules will allow for HAT inhibition induced maturation improvement.

[7] = tested on: human oocytes; assay: Human oocyte IVM with HAT or RT inhibitor supplementation; type: cell-based; details: oocytes from young fertility preservation patients, Sage medium with LH and FSH, FIG. 11
Description: Human IVM protocol: Germinal vesicle (GV) oocytes were subjected to IVM in a Sage medium (A1-rad Medical) supplemented with 0.075 IU/mL luteinizing hormone (LH) and 0.075 IU/mL follicle stimulating hormone (FSH) overnight. HAT and/or RT inhibitors were added to the overnight culture in some experiments. All naked oocytes that were found were transferred for up to 48 hours of incubation in oocyte maturation medium (Sage In-Vitro Fertilization) supplemented with 0.075 IU/mL human menopausal gonadotropin (hMG) (Menopur, Ferring Pharmaceuticals). HAT and/or RT inhibitors were added to the 48-hour culture in some experiments. After 24 hours of incubation, the media was searched for mature oocytes that were immediately frozen. The media were then incubated for another 24 hours and searched again for other mature oocytes.
To also look at non-arrested human oocytes, we investigated the behavior of another cohort of human oocytes extracted from patients undergoing gonadotoxic treatment and therefore undergoing fertility preservation. In these cases, when hormonal induction and oocyte extraction are not possible due to the young age of the patient or social reasons, ovary surgical extraction is performed. After extraction, ovaries are dissected in medium in the IVF lab, and ovary tissue is cryopreserved. After remission, ovary tissue can be transplanted, and IVF performed. […]

[8] = tested on: L1-encoded ORF1p; assay: In situ immunofluorescence for L1-ORF1p in treated young oocytes; type: cell-based, mouse; details: TSA 100 nm
Description: as §2
(§4) Imaging and quantification: Oocytes were imaged using the Ti-Eclipse Nikon system, with an Andor Zyla nsc05537 camera. […] Every cell was imaged at multiple planes. In order to analyze the images in a quantitatively, a projection of maximum intensity was created. To measure staining intensity, every assessed region was normalized to an equal-size region in the background (outside the area of interest). The intensity score was generated by dividing the intensity in the area of interest by that of the background.
as §3

[9] = tested on: Rad51; assay: Rad51 nuclear localization (DNA damage response) in treated young oocytes; type: cell-based, mouse; details: TSA 100 nm
Description: as §2, §4, §3

[10] = tested on: H3K27Ac; assay: In situ staining for H3K27Ac in treated young oocytes; type: cell-based, mouse; details: TSA 100 nm, 4 h arrest then 18 h until MII
Description: as §2, §4, §3

[11] = tested on: H3K9me2; assay: H3K9me2 staining in treated young oocytes; type: cell-based, mouse; details: TSA 100 nm, 4 h arrest then 18 h until MII
Description: Chromosome spread and immunofluorescence: Prophase I arrested oocytes were collected from ovaries as above and incubated for 6 hours to reach the first prophase or for 17 hours to reach second meiosis prophase as described above. Matured oocytes were washed in M2 medium and then in acidic Tyrode's Solution to remove the Zona Pellucida. 15 min before the desired time for chromosome spread, oocytes were kept in hypotonic solution, composed of FBS (F7524) diluted in DDW in 1:1 ratio. Oocytes were then spread in spreading solution (1% PFA buffered to 9.2 pH, supplemented with 0.15% Triton X-100and 0.03% […]) on Superfrost plus slides (32090003). To assess ploidy, prophase II spreads were stained with Hoechst to visualize chromatin and CREST to visualize the centromeres, and the imaged chromosome were manually counted.
In situ immunofluorescence: Permeabilization was performed using 0.1% Triton X-100. […]
Imaging and quantification: Oocytes were imaged using the Ti-Eclipse Nikon system, with an Andor Zyla nsc05537 camera. […] In order to analyze the images in a quantitatively, a projection of maximum intensity was created. To measure staining intensity, every assessed region was normalized to an equal-size region in the background (outside the area of interest). […]

[12] = tested on: H3K4me3; assay: In situ staining for H3K4me3 in treated young oocytes; type: cell-based, mouse; details: TSA 100 nm
Description: as §2, §4, §3

Chain of PCAF (Q92831 whole entry, species assumed): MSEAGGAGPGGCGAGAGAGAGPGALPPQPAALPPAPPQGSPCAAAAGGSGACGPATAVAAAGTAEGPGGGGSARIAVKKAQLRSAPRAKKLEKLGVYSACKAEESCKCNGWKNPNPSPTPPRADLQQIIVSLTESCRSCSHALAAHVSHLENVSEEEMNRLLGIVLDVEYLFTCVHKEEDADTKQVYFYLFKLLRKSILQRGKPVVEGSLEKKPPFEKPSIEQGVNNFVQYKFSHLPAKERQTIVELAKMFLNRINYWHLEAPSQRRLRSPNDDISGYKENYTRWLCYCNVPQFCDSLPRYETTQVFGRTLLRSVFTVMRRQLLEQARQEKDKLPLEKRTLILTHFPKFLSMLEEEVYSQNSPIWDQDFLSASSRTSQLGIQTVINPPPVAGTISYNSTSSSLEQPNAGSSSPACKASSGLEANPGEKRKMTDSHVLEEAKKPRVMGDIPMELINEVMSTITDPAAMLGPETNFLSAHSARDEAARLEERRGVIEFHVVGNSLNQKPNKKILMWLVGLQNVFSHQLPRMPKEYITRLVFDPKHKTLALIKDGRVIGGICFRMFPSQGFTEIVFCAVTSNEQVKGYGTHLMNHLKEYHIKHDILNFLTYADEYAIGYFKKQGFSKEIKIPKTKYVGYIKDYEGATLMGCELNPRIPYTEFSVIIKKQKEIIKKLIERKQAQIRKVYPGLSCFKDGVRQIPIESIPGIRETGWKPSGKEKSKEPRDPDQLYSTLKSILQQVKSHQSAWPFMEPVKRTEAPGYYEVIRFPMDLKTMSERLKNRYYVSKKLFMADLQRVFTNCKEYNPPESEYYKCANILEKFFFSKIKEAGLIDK

Compound: O=C(Nc1ccccc1-c1cn2c(CN3CCNCC3)csc2n1)c1cnc2ccccc2n1 [SRT-1720]
maturation ability of treated cells ([1]; aged oocytes cultured with SRT-1720, FIG. 8H): recovered maturation ability | heterochromatin (H3K9me2 staining intensity) [2]: heterochromatin elevation

Compound: NC(=O)c1ccc[n+]([C@@H]2O[C@H](COP(=O)([O-])OP(=O)(O)OC[C@H]3O[C@@H](n4cnc5c(N)ncnc54)[C@H](O)[C@@H]3O)[C@@H](O)[C@H]2O)c1 [NAD+, nicotinamide adenine dinucleotide]
oocyte quality [3]: rejuvenated oocyte quality

Compound: CN1C(=O)[C@@]23C[C@]4([C@]56C[C@@]78SS[C@@](CO)(C(=O)N7[C@H]5Nc5ccccc56)N(C)C8=O)c5ccccc5N[C@@H]4N2C(=O)[C@]1(CO)SS3 [Chaetocin]
reduction in oocytes that properly mature [4]: 18%

Compound: CC1=CC(=O)c2c(O)cccc2C1=O [Plumbagin]
ability to induce maturation (first polar body extrusion and proper chromosome division) ([1]; old oocytes): comparable to curcumin | PCAF inhibition [5]: do not

Compound: CC(C)=CCC[C@]1(C)C=Cc2c(O)c3c(c(CC=C(C)C)c2O1)O[C@]12C(=C[C@@H]4C[C@H]1C(C)(C)O[C@@]2(C/C=C(/C)C(=O)O)C4=O)C3=O [gambogic acid]
ability to induce maturation (first polar body extrusion and proper chromosome division) ([1]; old oocytes): did not produce increased maturation | acidity [6]: highly acidic | PCAF inhibition [5]: strongly inhibit

Compound: COc1cc(/C=C/C(=O)CC(=O)/C=C/c2ccc(O)c(OC)c2)ccc1O [Curcumin]
maturation rate at the highest dose ([1]; old oocytes, curcumin 10 um, FIG. 9A): over 80% | maturation rate versus vehicle ([1]; old oocytes, vehicle-only negative control, FIG. 9A-9B): dose dependent increase | maturation ability of human oocytes [7]: did not impair their maturation ability and even increased it | PCAF inhibition [5]: do not

Compound: CC(/C=C/C(=O)NO)=C\[C@@H](C)C(=O)c1ccc(N(C)C)cc1 [TSA, Trichostatin A]
L1-ORF1p localization [8]: accumulates in nuclei | L1-encoded ORF1p overall signal level [8]: do not show a L1-encoded ORF1p elevation | DNA damage response (Rad51 nuclear localization) [9]: elevated | H3K27Ac in situ staining [10]: increase | H3K9me2 in situ staining [11]: decrease | staining for H3K4me3 [12]: unchanged

acidity [6]: highly acidic
Compound: CCCCCCCCCCCCCCCc1cccc(O)c1C(=O)O [anacardic acid]
ability to induce maturation (first polar body extrusion and proper chromosome division) ([1]; old oocytes): did not produce increased maturation | PCAF inhibition [5]: strongly inhibit

acidity [6]: more weakly acidic
Compound: O=C(O[C@@H]1Cc2c(O)cc(O)cc2O[C@@H]1c1cc(O)c(O)c(O)c1)c1cc(O)c(O)c(O)c1 [EGCG, Epigallocatechin gallate]
ability to induce maturation (first polar body extrusion and proper chromosome division) ([1]; old oocytes): did not produce increased maturation
